# “Also recorded” adds a separate entry of the source.
# Legend:
# [1] = tested on: hypoxic human cancer cells; conditions: hypoxic vs normoxic human cancer cells; cited from earlier work
# [2] = tested on: MCF-7 human breast cancer cells; test: Hypoxia-activated drug assay: live-dead staining (calcein-AM / propidium iodide) of micropatterned cells, normoxic or in hypoxia microdevice; assay type: cell-based; conditions: 50 μM TPZ; for live-cell fraction (areal fraction of positive calcein staining), inside versus outside the 1.5 mm radius: N=3, one-way ANOVA; for cytotoxicity indicated by positive nuclear propidium iodide (PI) staining: 24 hours after 12 hours pre-conditioning
# Procedure: To assess the response of cancer cells to drug treatment under a hypoxic gradient, as well as the feasibility of the microdevice for drug screening assays, cell viability assays with TPZ treatment in the microdevice were performed. […] Cells were pre-conditioned with hypoxia in the microdevice for 12 hours, which was considered sufficient to induce cellular adaptations to hypoxia^47, before being treated with TPZ for 24 hours. […] As dead cells can be washed off in the staining process, the areal fraction of living cells with positive calcein staining was chosen as the readout for TPZ cytotoxicity. The live-cell fractions in the micropatterns inside and outside the 1.5 mm radius were quantified, which corresponds to the pillar radius.
# MCF-7 human breast cancer cells were purchased from ATCC and maintained in […] (DMEM; Thermo Fisher) supplemented with 10% fetal bovine serum (FBS; Omega Scientific), 100 U mL^−1 penicillin, and 100 μg mL^−1 streptomycin (Thermo Fisher), in a humidified incubator maintained at 37° C. and 5% CO2. Round glass coverslips (12 mm in diameter; Fisher Scientific) were immersed in hot commercial detergent, rinsed with deionized water, and dried with air. The coverslips were then treated with plasma (Harrick Plasma, Model PDC-001-HP) and silanized with 1% aminopropyltriathoxysilane (Fisher Scientific) for 15 minutes. Upon extensive rinsing, coverslips were dried with air and cured at 100° C. for 1 hour. Next, silanized coverslips were coated with 0.1 mg mL^−1 rat tail collagen type I (Corning) in 4° C. for 3 hours under shaking conditions. Micropattern designs were modeled in CorelDrawX7 (Corel Corporation) and fabricated into 250 μm thick PDMS stencils (Rogers Corporation) by a laser engraver (Epilog). Stencil design was a circular feature of 5 mm diameter cut into a 13 mm circle. Stencils were then thoroughly rinsed in 70% isopropanol and deionized water, air-dried, and aligned onto the collagen-coated coverslips. The whole substrate was blocked with 0.2% w/v pluronic F-127 (Sigma) diluted in 1×PBS, rinsed with PBS, then with DMEM. Next, 300,000 MCF-7 human breast cancer cells (ATCC) were seeded. After cells adhered, PDMS stencils were peeled off and the glass coverslips with micropatterned cancer cells were briefly rinsed^41.
# Micropatterned cells were pre-conditioned in normoxic conditions (no microdevice) or hypoxic conditions (microdevice) for 12 hours. Next, media was replaced with 50 μM TPZ (Sigma Aldrich), a hypoxia-activated anticancer prodrug, for 24 hours. Cells were rinsed with fresh media and stained for calcein-AM (Sigma Aldrich) and propidium iodide (PI) (Thermo Fisher Scientific) for 30 minutes at room temperature. Cell survival was quantified by the fraction of cells expressing positive calcein signal.
# For the drug assay, the fraction of calcein positive cells (live cells) within (corresponding to hypoxia-induced cells under the pillar) and outside (corresponding to near-normoxic cells outside the pillar) the 1.5 mm radius was quantified. The fraction of PI positive cells (dead cells) was also quantified. The respective fractions were plotted against micropattern radii, similarly to previous image analyses. All data are plotted using Prism (GraphPad Software, Inc.).
smiles,measurement,setting,value
"Nc1n[n+]([O-])c2ccccc2[n+]1[O-] [TPZ, tirapazamine]",selectivity at targeting hypoxic human cancer cells versus their normoxic counterparts,[1],15- to 50 fold
same,"live-cell fraction (areal fraction of positive calcein staining), inside versus outside the 1.5 mm radius","[2]; hypoxia microdevice, 24 hours",significant reduction
same,cytotoxicity indicated by positive nuclear propidium iodide (PI) staining,"[2]; hypoxic samples (microdevice), MCF-7",cytotoxicity caused by TPZ
same,fate of cells under severe hypoxia near the pillar center (live-dead staining),"[2]; microdevice, ≤0.03 mol/m^3 oxygen level by COMSOL simulation, 24 hours, MCF-7",eliminated; also recorded: death zone
same,"live-cell fraction (areal fraction of positive calcein staining), inside versus outside the 1.5 mm radius","[2]; normoxic condition (no microdevice), 24 hours",not statistically different
same,cytotoxicity indicated by positive nuclear propidium iodide (PI) staining,"[2]; normoxic samples (no microdevice), MCF-7",cytotoxicity caused by TPZ; also recorded: TPZ-induced cytotoxicity

# Source: patent US10829730B2, “Microdevice platform recapitulating hypoxic tissue microenvironments” (UNIVERSITY OF SOUTHERN CALIFORNIA, priority 2017, dated 2020)
